Test results as given in PMC10033419, “Blocking NS3–NS4B interaction inhibits dengue virus in non-human primates” (Nature, 2023).

Test system: DENV-2 RL strain
Assay: Survival study, lethal DENV challenge with 4G2 antibody
Assay type: in vivo, AG129 mice
Conditions: 2'CMC

SMILES: C[C@@]1(O)[C@H](O)[C@@H](CO)O[C@H]1n1ccc(N)nc1=O [2'CMC]
- % Survival (d p.i. 0): 100%
- % Survival (d p.i. 1): 100%
- % Survival (d p.i. 2): 100%
- % Survival (d p.i. 3): 100%
- % Survival (d p.i. 4): 100%
- % Survival (d p.i. 5): 100%
- % Survival (d p.i. 6): 100%
- % Survival (d p.i. 7): 100%
- % Survival (d p.i. 8): 100%
- % Survival (d p.i. 9): 100%
- % Survival (d p.i. 10): 100%
- % Survival (d p.i. 11): 100%
- % Survival (d p.i. 12): 100%
- % Survival (d p.i. 13): 90%
- % Survival (d p.i. 14): 80%
- % Survival (d p.i. 15): 80%
- % Survival (d p.i. 16): 80%
- % Survival (d p.i. 17): 80%
- % Survival (d p.i. 18): 60%
- % Survival (d p.i. 19): 60%
- % Survival (d p.i. 20): 60%
- % Survival (d p.i. 21): 60%
- % Survival (d p.i. 22): 60%
- % Survival (d p.i. 23): 60%
- % Survival (d p.i. 24): 50%
- % Survival (d p.i. 25 = end of study): 50%
